In ChEMBL document CHEMBL5715954, “Silencing c-Myc translation as a therapeutic strategy through targeting PI3Kδ and CK1ε in hematological malignancies” (Blood, 2017):

How the values were obtained:
Set-up in all cases: scale not given: the % may be the effect or the level left
[1] = biological target: Tyrosine-protein kinase Yes (Homo sapiens) (UniProt P07947); test: Inhibition of human YES assessed as enzyme activity at 1 uM using poly[Glu:Tyr] (4:1) as substrate preincubated for 20 mins followed by [gamma-33P]-ATP addition and measured after 120 mins by radiometric Hot-SpotSM Kinase assay relative to control
[2] = biological target: Protein kinase C eta type (Homo sapiens) (UniProt P24723); test: Inhibition of human PKCeta assessed as enzyme activity at 1 uM using ERMRPRKRQGSVRRRV as substrate preincubated for 20 mins followed by [gamma-33P]-ATP addition and measured after 120 mins by radiometric Hot-SpotSM Kinase assay relative to control
[3] = biological target: Calcium/calmodulin-dependent protein kinase kinase 1 (Homo sapiens) (UniProt Q8N5S9); test: Inhibition of human CAMKK1 assessed as enzyme activity at 1 uM using myelin basic protein as substrate preincubated for 20 mins followed by [gamma-33P]-ATP addition and measured after 120 mins by radiometric Hot-SpotSM Kinase assay relative to control
[4] = biological target: Calcium/calmodulin-dependent protein kinase kinase 2 (Homo sapiens) (UniProt Q96RR4); test: Inhibition of human CAMKK2 assessed as enzyme activity at 1 uM using myelin basic protein as substrate preincubated for 20 mins followed by [gamma-33P]-ATP addition and measured after 120 mins by radiometric Hot-SpotSM Kinase assay relative to control
[5] = biological target: Receptor tyrosine-protein kinase erbB-2 (Homo sapiens) (UniProt P04626); test: Inhibition of human ERBB2 assessed as enzyme activity at 1 uM using poly[Glu:Tyr] (4:1) as substrate preincubated for 20 mins followed by [gamma-33P]-ATP addition and measured after 120 mins by radiometric Hot-SpotSM Kinase assay relative to control
[6] = biological target: T1, Mitogen-activated protein kinase kinase kinase kinase 3 (Homo sapiens) (UniProt Q8IVH8); test: Inhibition of human GLK/MAP4K3 assessed as enzyme activity at 1 uM using myelin basic protein as substrate preincubated for 20 mins followed by [gamma-33P]-ATP addition and measured after 120 mins by radiometric Hot-SpotSM Kinase assay relative to control
T1 sequence (whole entry): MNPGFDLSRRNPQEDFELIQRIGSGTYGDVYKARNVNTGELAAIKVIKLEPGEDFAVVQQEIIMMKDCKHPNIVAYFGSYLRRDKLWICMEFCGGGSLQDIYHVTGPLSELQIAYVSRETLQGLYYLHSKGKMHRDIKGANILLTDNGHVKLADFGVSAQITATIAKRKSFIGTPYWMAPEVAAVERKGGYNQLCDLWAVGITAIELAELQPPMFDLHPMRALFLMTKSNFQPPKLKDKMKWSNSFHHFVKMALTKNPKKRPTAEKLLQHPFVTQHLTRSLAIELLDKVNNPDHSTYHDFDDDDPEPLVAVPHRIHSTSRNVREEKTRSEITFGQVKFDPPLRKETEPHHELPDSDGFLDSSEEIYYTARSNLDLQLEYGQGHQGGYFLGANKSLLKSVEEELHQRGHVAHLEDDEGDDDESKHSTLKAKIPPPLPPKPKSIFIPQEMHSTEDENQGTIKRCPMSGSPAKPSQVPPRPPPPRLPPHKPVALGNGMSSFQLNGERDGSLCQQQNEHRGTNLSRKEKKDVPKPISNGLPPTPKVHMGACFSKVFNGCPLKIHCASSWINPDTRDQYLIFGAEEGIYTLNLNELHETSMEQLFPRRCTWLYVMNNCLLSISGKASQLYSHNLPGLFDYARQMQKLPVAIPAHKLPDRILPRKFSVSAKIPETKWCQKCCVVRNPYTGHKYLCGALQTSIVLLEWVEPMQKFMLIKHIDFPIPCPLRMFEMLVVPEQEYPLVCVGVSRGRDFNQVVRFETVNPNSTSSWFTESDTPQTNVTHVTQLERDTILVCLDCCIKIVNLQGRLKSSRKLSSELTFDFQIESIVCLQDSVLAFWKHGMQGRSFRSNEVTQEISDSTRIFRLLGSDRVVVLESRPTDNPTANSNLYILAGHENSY

[7] = biological target: Mitogen-activated protein kinase kinase kinase 8 (Homo sapiens) (UniProt P41279); test: Inhibition of human COT1 assessed as enzyme activity at 1 uM using MEK1 (K97R) as substrate preincubated for 20 mins followed by [gamma-33P]-ATP addition and measured after 120 mins by radiometric Hot-SpotSM Kinase assay relative to control
[8] = biological target: T2, Ephrin type-B receptor 4 (Homo sapiens) (UniProt P54760); test: Inhibition of human EPHB4 assessed as enzyme activity at 1 uM using poly[Glu:Tyr] (4:1) as substrate preincubated for 20 mins followed by [gamma-33P]-ATP addition and measured after 120 mins by radiometric Hot-SpotSM Kinase assay relative to control
T2 sequence (whole entry): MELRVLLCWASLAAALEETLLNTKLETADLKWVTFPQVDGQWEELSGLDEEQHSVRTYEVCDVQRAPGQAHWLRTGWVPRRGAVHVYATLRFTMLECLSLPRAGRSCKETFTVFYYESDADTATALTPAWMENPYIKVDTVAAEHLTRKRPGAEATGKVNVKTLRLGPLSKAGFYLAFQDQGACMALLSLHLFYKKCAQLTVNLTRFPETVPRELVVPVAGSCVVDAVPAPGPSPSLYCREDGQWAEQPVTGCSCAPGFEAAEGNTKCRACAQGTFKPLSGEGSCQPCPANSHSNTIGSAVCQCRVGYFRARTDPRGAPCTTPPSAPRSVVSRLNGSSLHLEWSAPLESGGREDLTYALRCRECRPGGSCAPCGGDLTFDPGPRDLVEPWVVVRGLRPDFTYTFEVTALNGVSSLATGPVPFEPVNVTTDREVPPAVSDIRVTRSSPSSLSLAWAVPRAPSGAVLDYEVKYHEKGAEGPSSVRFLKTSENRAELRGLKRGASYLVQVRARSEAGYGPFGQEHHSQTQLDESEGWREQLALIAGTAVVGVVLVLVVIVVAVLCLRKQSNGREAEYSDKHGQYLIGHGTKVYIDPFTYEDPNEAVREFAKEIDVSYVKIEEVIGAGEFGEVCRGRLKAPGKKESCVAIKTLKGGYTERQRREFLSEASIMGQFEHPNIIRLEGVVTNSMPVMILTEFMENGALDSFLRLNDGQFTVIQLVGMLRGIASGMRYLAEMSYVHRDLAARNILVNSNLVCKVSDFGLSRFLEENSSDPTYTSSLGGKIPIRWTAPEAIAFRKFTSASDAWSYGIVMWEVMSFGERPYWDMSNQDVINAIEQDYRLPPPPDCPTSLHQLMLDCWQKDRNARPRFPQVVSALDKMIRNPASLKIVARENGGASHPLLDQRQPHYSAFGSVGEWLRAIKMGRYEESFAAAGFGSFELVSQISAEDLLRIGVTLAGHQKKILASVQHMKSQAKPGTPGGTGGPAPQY

Chain of Calcium/calmodulin-dependent protein kinase kinase 1 (Homo sapiens) (Q8N5S9 whole entry, looked up): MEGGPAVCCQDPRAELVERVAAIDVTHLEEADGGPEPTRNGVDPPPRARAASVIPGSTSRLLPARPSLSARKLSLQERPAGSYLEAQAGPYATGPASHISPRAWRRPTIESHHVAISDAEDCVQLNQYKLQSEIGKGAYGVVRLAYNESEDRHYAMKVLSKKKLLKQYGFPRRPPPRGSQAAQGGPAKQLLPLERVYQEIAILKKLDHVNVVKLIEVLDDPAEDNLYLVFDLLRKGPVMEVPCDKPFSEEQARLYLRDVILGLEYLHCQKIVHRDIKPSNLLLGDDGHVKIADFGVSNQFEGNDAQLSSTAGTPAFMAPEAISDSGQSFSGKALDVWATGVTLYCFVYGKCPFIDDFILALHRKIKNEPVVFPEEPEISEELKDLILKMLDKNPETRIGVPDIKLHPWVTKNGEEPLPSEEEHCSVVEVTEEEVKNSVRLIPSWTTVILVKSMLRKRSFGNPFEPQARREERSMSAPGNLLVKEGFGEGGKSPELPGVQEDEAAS
Chain of Protein kinase C eta type (Homo sapiens) (P24723 whole entry): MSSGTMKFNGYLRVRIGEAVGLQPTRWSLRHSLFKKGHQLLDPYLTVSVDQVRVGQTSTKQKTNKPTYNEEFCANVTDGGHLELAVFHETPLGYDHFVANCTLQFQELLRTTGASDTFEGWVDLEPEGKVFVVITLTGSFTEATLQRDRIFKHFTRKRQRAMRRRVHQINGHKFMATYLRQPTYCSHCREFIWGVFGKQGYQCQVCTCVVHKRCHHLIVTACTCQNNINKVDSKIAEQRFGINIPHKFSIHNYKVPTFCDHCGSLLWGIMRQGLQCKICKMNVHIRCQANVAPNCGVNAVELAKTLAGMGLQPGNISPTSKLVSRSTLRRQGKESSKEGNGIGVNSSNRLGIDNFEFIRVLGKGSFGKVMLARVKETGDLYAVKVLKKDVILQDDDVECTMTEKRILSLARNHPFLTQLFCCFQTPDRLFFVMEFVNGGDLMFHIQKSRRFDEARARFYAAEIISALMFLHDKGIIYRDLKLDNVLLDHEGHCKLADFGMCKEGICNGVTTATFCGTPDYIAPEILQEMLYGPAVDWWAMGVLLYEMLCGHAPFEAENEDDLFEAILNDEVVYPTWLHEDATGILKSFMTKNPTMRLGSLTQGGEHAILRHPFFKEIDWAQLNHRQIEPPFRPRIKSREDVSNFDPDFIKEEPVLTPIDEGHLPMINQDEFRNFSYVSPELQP
Chain of Calcium/calmodulin-dependent protein kinase kinase 2 (Homo sapiens) (Q96RR4 2-588 limits assumed): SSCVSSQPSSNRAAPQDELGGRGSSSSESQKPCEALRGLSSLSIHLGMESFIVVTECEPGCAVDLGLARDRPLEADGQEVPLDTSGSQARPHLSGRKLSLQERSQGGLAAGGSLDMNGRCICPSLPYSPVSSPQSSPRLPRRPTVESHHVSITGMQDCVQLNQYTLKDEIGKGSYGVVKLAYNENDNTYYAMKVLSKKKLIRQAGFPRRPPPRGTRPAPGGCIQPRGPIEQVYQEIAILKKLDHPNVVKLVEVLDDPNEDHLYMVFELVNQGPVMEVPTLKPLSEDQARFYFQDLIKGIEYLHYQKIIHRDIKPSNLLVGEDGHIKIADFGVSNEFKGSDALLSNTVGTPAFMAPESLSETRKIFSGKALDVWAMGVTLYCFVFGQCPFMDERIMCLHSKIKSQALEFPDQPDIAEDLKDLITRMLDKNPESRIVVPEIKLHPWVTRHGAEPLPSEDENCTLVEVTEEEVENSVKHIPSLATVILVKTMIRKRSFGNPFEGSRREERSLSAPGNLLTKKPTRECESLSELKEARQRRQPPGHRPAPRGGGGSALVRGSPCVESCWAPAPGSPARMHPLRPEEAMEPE
Chain of Mitogen-activated protein kinase kinase kinase 8 (Homo sapiens) (P41279 whole entry): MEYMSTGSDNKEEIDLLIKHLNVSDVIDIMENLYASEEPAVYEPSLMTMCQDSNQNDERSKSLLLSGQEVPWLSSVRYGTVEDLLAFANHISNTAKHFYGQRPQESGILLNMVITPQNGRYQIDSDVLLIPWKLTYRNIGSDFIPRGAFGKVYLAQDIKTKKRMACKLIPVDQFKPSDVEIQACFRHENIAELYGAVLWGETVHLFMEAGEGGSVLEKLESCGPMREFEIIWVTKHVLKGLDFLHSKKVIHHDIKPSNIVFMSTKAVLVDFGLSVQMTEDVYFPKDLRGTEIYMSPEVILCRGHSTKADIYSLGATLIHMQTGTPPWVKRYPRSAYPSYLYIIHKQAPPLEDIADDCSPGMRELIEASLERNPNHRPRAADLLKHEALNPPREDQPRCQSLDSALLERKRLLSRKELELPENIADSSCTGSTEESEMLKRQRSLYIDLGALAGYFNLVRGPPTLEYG
Chain of Tyrosine-protein kinase Yes (Homo sapiens) (P07947 2-543 limits assumed): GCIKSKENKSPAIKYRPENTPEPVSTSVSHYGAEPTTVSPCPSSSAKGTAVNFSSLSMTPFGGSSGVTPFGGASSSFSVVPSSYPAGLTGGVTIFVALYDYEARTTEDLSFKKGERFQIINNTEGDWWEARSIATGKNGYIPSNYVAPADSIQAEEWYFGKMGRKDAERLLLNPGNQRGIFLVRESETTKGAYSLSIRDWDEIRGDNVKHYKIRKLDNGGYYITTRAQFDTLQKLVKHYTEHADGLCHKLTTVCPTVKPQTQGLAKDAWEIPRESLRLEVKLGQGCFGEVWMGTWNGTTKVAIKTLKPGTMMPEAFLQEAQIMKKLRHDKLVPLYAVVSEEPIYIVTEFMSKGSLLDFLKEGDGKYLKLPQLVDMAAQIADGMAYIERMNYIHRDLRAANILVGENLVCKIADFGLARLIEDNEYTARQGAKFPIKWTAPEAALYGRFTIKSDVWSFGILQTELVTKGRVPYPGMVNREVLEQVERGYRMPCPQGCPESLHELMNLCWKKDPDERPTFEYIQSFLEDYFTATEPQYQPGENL
Chain of Receptor tyrosine-protein kinase erbB-2 (Homo sapiens) (P04626 whole entry): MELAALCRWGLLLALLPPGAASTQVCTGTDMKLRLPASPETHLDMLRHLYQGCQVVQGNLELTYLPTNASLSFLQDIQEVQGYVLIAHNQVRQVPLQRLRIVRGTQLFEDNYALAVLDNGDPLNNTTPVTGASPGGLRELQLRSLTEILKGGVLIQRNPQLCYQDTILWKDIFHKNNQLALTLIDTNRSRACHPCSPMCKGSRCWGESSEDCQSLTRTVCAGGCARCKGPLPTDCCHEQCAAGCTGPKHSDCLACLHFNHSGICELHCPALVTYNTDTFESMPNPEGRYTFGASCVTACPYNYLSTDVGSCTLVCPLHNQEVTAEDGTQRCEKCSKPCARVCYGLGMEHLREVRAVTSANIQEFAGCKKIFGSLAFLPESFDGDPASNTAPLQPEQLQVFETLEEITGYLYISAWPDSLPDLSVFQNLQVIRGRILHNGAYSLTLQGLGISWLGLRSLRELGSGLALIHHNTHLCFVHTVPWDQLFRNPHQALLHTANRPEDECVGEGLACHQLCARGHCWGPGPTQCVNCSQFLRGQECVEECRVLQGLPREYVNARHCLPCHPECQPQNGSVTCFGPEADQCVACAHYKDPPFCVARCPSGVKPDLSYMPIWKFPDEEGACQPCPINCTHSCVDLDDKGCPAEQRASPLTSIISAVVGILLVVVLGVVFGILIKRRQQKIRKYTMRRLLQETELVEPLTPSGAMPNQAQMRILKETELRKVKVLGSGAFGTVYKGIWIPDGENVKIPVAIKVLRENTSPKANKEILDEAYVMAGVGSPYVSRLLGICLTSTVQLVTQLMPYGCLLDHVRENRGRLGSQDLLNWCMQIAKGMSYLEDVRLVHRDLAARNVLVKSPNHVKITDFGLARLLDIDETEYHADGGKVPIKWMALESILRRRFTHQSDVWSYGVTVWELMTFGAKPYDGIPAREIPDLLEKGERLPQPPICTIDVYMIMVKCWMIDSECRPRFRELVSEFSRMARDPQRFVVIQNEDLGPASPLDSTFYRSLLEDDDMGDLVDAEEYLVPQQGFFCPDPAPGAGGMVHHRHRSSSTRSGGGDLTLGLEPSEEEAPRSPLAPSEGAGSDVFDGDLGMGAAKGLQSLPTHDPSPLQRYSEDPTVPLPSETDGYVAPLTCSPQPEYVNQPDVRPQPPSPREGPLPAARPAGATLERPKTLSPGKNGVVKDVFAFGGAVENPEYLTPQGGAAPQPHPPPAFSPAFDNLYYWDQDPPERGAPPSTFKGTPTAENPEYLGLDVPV

| Structure (SMILES) | Activity [1] | Activity [2] | Activity [3] | Activity [4] | Activity [5] | Activity [6] | Activity [7] | Activity [8] |
| --- | --- | --- | --- | --- | --- | --- | --- | --- |
| CC[C@H](Nc1ncnc2[nH]cnc12)c1nc2cccc(F)c2c(=O)n1-c1ccccc1 | 93.1% | 88.5% | 105% | 106% | 109% | 95.2% | 101% | 92.2% |
| C[C@H](Nc1ncnc2nc[nH]c12)c1cc2cccc(Cl)c2c(=O)n1-c1ccccc1 | 94.2% | 87.7% | 98.1% | 96.6% | 104% | 98.3% | 96.8% | 91.5% |
| CC(C)Oc1ccc(-c2nn([C@@H](C)c3oc4ccc(F)cc4c(=O)c3-c3cccc(F)c3)c3ncnc(N)c23)cc1F [UMBRALISIB] | 93.5% | 88.4% | 102% | 98.5% | 117% | 99.3% | 98.2% | 89.7% |
